Data published in PubChem BioAssay (NCI).
Where “and” joins values, the source holds several entries; their conditions need not be identical. Equal values may be shown once.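 The compound was tested at five concentrations on cells cultured in 96-well plates, with a 48-hour exposure period. GI50: concentration for 50% inhibition of growth. TGI denotes the concentration required for complete inhibition of growth.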

Assays:
Test in all cases: DTP human tumour cell line panel, 48 h
SF-295 CNS = test system: SF-295 CNS
BT-549 breast = test system: BT-549 breast
OVCAR-5 ovarian = test system: OVCAR-5 ovarian
SK-MEL-5 melanoma = test system: SK-MEL-5 melanoma
U251 CNS = test system: U251 CNS
HS 578T breast = test system: HS 578T breast
NCI-H522 lung = test system: NCI-H522 lung
SNB-19 CNS = test system: SNB-19 CNS
SR leukemia = test system: SR leukemia
TK-10 renal = test system: TK-10 renal

N#Cc1c(NC(=O)c2ccccc2F)sc2c1CCCC2
GI50 (SF-295 CNS): > 25 µM | TGI (SF-295 CNS): > 25 µM | GI50 (BT-549 breast): > 20.3 µM | TGI (BT-549 breast): > 25 µM | GI50 (OVCAR-5 ovarian): > 25 µM | TGI (OVCAR-5 ovarian): > 25 µM | GI50 (SK-MEL-5 melanoma): > 22 µM | TGI (SK-MEL-5 melanoma): > 25 µM | GI50 (U251 CNS): > 25 µM | TGI (U251 CNS): > 25 µM | GI50 (HS 578T breast): > 21.9 µM | TGI (HS 578T breast): > 25 µM | GI50 (NCI-H522 lung): > 12.8 µM | TGI (NCI-H522 lung): > 25 µM | GI50 (SNB-19 CNS): > 25 µM | TGI (SNB-19 CNS): > 25 µM | GI50 (SR leukemia): > 25 µM | TGI (SR leukemia): > 25 µM | GI50 (TK-10 renal): > 25 µM | TGI (TK-10 renal): > 25 µM

O=c1[nH]c(=S)[nH]c(-c2ccccc2)c1Cc1c(O)ccc2ccccc12
TGI (SF-295 CNS): > 100 µM | TGI (BT-549 breast): 90.7 µM | TGI (OVCAR-5 ovarian): > 100 µM | TGI (SK-MEL-5 melanoma): 43.8 µM | TGI (U251 CNS): > 100 µM | TGI (HS 578T breast): > 100 µM | TGI (NCI-H522 lung): > 100 µM | TGI (SNB-19 CNS): > 100 µM | TGI (SR leukemia): > 100 µM | TGI (TK-10 renal): 59.3 µM

COc1c(OC(C)C)cc2cc(O)c(C(=O)NC3Cc4ccc(c(Cl)n4)O[C@@H]4C=C5C#C/C(=C\C#CC6OC56C4OC4CC(C)(O)C(O)C(C)O4)C(OC4CC(O)C(N(C)C)C(C)O4)COC3=O)cc2c1OC (stereo partly drawn)
GI50 (SF-295 CNS): 9.97 µM and 0.523 µg/mL | TGI (SF-295 CNS): > 36.3 µM and 6.24 µg/mL | TGI (BT-549 breast): > 36.3 µM | GI50 (OVCAR-5 ovarian): > 36.3 µM and 4.02 µg/mL | TGI (OVCAR-5 ovarian): > 36.3 µM and 27.5 µg/mL | GI50 (SK-MEL-5 melanoma): > 36.3 µM and 0.546 µg/mL | TGI (SK-MEL-5 melanoma): > 36.3 µM and 10.1 µg/mL | GI50 (U251 CNS): 5.61 µM and 0.596 µg/mL | TGI (U251 CNS): > 36.3 µM and 9.98 µg/mL | TGI (HS 578T breast): > 36.3 µM | GI50 (NCI-H522 lung): 29.6 µM and 1.25 µg/mL | TGI (NCI-H522 lung): > 36.3 µM and 15.8 µg/mL | GI50 (SNB-19 CNS): 17.7 µM and 0.956 µg/mL | TGI (SNB-19 CNS): > 36.3 µM and 37.5 µg/mL | GI50 (SR leukemia): 8.27 µM and 0.0174 µg/mL | TGI (SR leukemia): > 36.3 µM and 0.746 µg/mL | GI50 (TK-10 renal): > 36.3 µM and 37.5 µg/mL | TGI (TK-10 renal): > 36.3 µM and 37.5 µg/mL

CC(C)N(Cc1ccc(F)cc1)c1ccc(CO)c(Cl)c1
GI50 (SF-295 CNS): 0.25 µM | TGI (SF-295 CNS): 11.8 µM | GI50 (BT-549 breast): 12.3 µM | TGI (BT-549 breast): 25.7 µM | GI50 (OVCAR-5 ovarian): 0.0576 µM | TGI (OVCAR-5 ovarian): 0.247 µM | GI50 (SK-MEL-5 melanoma): 8.67 µM | TGI (SK-MEL-5 melanoma): 21.8 µM | GI50 (U251 CNS): 0.37 µM | TGI (U251 CNS): 14.4 µM | GI50 (HS 578T breast): 14.8 µM | TGI (HS 578T breast): 37.8 µM | GI50 (NCI-H522 lung): 11.3 µM | TGI (NCI-H522 lung): 26.7 µM | GI50 (SNB-19 CNS): 12.2 µM | TGI (SNB-19 CNS): 25.3 µM | GI50 (SR leukemia): 12.8 µM | TGI (SR leukemia): 32.5 µM | GI50 (TK-10 renal): 0.0283 µM | TGI (TK-10 renal): 0.173 µM

COc1c(CC=C(C)C)c(O)c(C(CC(C)C)c2c(O)c(CC=C(C)C)c(O)c(C(C)=O)c2O)c(O)c1C(C)=O (stereo not drawn)
TGI (SF-295 CNS): 2.28 µM | TGI (BT-549 breast): 14.9 µM | TGI (OVCAR-5 ovarian): 19.7 µM | TGI (SK-MEL-5 melanoma): 5.04 µM | TGI (U251 CNS): 11.2 µM | TGI (HS 578T breast): 4.63 µM | TGI (NCI-H522 lung): 1.48 µM | TGI (SNB-19 CNS): 15.2 µM | TGI (SR leukemia): 3.8 µM | TGI (TK-10 renal): 14.6 µM

O=C1/C(=C/c2ccccc2[N+](=O)[O-])COc2ccc(O)cc21
GI50 (SF-295 CNS): 7.13 µM | TGI (SF-295 CNS): 25.6 µM | GI50 (BT-549 breast): 2.3 µM | TGI (BT-549 breast): 5.23 µM | GI50 (OVCAR-5 ovarian): 1.73 µM | TGI (OVCAR-5 ovarian): 3.64 µM | GI50 (SK-MEL-5 melanoma): 1.76 µM | TGI (SK-MEL-5 melanoma): 4.07 µM | GI50 (U251 CNS): 2.41 µM | TGI (U251 CNS): 8.74 µM | GI50 (HS 578T breast): 2.39 µM | TGI (HS 578T breast): 41.6 µM | GI50 (NCI-H522 lung): 0.684 µM | TGI (NCI-H522 lung): 3.65 µM | GI50 (SNB-19 CNS): 4.15 µM | TGI (SNB-19 CNS): 16.6 µM | GI50 (SR leukemia): 0.366 µM | TGI (SR leukemia): > 100 µM | GI50 (TK-10 renal): 3.44 µM | TGI (TK-10 renal): 13.9 µM

COc1cc(-c2ncn(/C=C\c3nnco3)n2)cc(C(F)(F)F)c1
GI50 (SF-295 CNS): 0.08 µM | TGI (SF-295 CNS): > 100 µM | GI50 (BT-549 breast): 0.125 µM | TGI (BT-549 breast): 14.3 µM | GI50 (OVCAR-5 ovarian): 1.78 µM | TGI (OVCAR-5 ovarian): > 100 µM | GI50 (SK-MEL-5 melanoma): 0.411 µM | TGI (SK-MEL-5 melanoma): 4.39 µM | GI50 (U251 CNS): 0.0661 µM | TGI (U251 CNS): 17.6 µM | GI50 (HS 578T breast): 0.488 µM | TGI (HS 578T breast): > 100 µM | GI50 (NCI-H522 lung): 0.0671 µM | TGI (NCI-H522 lung): 1.61 µM | GI50 (SNB-19 CNS): 0.175 µM | TGI (SNB-19 CNS): > 100 µM | GI50 (SR leukemia): 0.021 µM | TGI (SR leukemia): > 100 µM | GI50 (TK-10 renal): 0.726 µM | TGI (TK-10 renal): 23 µM

C=CC(=O)N[C@@H](/C=C/C(=O)OCC)Cc1ccc(-c2cc(Cl)cc(Cl)c2)cc1
GI50 (SF-295 CNS): 13.5 µM | TGI (SF-295 CNS): 83.5 µM | GI50 (BT-549 breast): 11.9 µM | TGI (BT-549 breast): 43.8 µM | GI50 (OVCAR-5 ovarian): 21.6 µM | TGI (OVCAR-5 ovarian): > 100 µM | GI50 (SK-MEL-5 melanoma): 4.46 µM | TGI (SK-MEL-5 melanoma): 17.5 µM | GI50 (U251 CNS): 17.2 µM | TGI (U251 CNS): > 100 µM | GI50 (HS 578T breast): 16.3 µM | TGI (HS 578T breast): 78.4 µM | GI50 (NCI-H522 lung): 7.6 µM | TGI (NCI-H522 lung): 24.9 µM | GI50 (SNB-19 CNS): 16.5 µM | TGI (SNB-19 CNS): > 100 µM | GI50 (SR leukemia): 5.63 µM | TGI (SR leukemia): 44.8 µM | GI50 (TK-10 renal): 21.9 µM | TGI (TK-10 renal): 97.7 µM

N#Cc1cc2c(cc1Cl)Sc1nnc(Nc3cccc4ccccc34)n1S2(=O)=O
GI50 (SF-295 CNS): 16.8 µM | TGI (SF-295 CNS): 31.8 µM | GI50 (BT-549 breast): 14.6 µM | TGI (BT-549 breast): 28.9 µM | GI50 (OVCAR-5 ovarian): 15.1 µM | TGI (OVCAR-5 ovarian): 28.4 µM | GI50 (SK-MEL-5 melanoma): 3.95 µM | TGI (SK-MEL-5 melanoma): 15.7 µM | GI50 (U251 CNS): 3.23 µM | TGI (U251 CNS): 10.7 µM | GI50 (HS 578T breast): 2.89 µM | TGI (HS 578T breast): 9.74 µM | GI50 (NCI-H522 lung): 21.6 µM | TGI (NCI-H522 lung): > 100 µM | GI50 (SNB-19 CNS): 1.89 µM | TGI (SNB-19 CNS): 4.29 µM | GI50 (SR leukemia): 2.21 µM | TGI (SR leukemia): 7.82 µM | GI50 (TK-10 renal): 1.91 µM | TGI (TK-10 renal): 5.07 µM
